Reference: patent publication US7037962B2, “Composition and process for enhancing bio-mass production in greenhouses” (Ciba Specialty Chemicals Corp., priority 2002, dated 2006)

System: Carnation
Test: Growth of carnation in greenhouses covered with the film
Format: in vivo
Conditions: 1% compound 100 in Film A versus Film B
Procedure: A three layer LDPE/EVA industrial film is prepared by blow molding having the following structure: 200μ thickness, 50μ EVA 5%, 100μ EVA 14% and 50μ EVA 5%. […] Agricultural Tests Two cultivars, namely ‘Jack’ and ‘Samuela’, have been grown under two greenhouses one with film A and the other with film B. The cultivation started on the 18 Sep. 2001 and harvesting started on the 3, Oct. 2001. The cultivation conditions are the standard conditions used in the region.

Structure (SMILES): CN(C)c1ccc(C=C2C(=O)NC(=O)NC2=O)cc1 [compound 100, condensation product of 4-dimethylaminobenzaldehyde and barbituric acid]
- effect on the production and quality of carnation: evident
